Measurements taken from patent US8367695B2, “Condensed tetrahydroquinoline derivative and use thereof for medical purposes” (Mitsubishi Tanabe Pharma Corporation, priority 2007, dated 2013).

Biological target: T1, human recombinant glucocorticoids receptor (GR) (Homo sapiens, UniProt P04150)
T1 sequence (P04150 1-777): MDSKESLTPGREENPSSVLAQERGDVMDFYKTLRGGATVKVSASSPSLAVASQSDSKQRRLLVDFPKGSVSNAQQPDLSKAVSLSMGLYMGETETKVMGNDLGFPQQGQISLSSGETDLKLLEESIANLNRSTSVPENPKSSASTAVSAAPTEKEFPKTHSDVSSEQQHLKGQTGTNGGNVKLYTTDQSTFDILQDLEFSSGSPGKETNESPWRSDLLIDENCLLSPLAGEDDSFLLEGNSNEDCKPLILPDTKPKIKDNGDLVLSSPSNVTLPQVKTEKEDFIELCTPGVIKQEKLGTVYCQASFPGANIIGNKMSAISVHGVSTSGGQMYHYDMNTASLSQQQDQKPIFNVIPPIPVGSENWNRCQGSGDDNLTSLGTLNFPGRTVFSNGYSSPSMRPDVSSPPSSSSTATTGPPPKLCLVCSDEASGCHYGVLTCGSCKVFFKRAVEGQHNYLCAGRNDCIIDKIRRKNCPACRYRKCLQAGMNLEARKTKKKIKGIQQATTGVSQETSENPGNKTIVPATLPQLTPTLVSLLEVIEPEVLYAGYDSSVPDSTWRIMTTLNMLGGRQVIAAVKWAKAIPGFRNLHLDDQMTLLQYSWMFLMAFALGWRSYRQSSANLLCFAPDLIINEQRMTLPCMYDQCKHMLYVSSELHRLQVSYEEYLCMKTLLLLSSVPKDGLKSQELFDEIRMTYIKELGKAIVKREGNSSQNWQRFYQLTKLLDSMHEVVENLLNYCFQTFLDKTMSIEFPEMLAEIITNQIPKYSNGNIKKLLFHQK
Assay: Radioactive ligand binding test, GR cytosol, [3H]-Dex
Details: [3H]-Dex about 5 nM, GR cytosol, 4° C.; Cheng-Prusoff, Kd about 3.1 nM; read-out: GR (Ki: nM)
Procedure: Radioactive Ligand Binding Test Using Cytosols of Human Glucocorticoids Receptor, Progesterone Receptor and Mineralocorticoid Receptor
Opthalmol. Vis. […] In brief, cytosol preparations of human recombinant glucocorticoids receptor (GR) and human recombinant progesterone receptor-B (PRB) were purchased from Invitrogen (Carlsbad, Calif.), and a cytosol preparation of human recombinant mineralocorticoid receptor (MR) was prepared by our company (Yokohama, JP). MR cDNA was cloned into a baculovirus expression vector and expressed in insect cell Sf9. […] [^3H]-Dexamethasone (Dex, specific activity 91.0 Ci/mmol) was purchased from GE Healthcare (Buckinghamshire, UK), and [^3H]-progesterone (Prog, specific activity 103 Ci/mmol) and [3H]-aldosterone (Ald, specific activity 87.9 Ci/mmol) were each purchased from PerkinElmer (Boston, Mass.). Polypropylene round-bottomed 96 well plate was obtained from ABgene (Epsom, UK). Dimethyl Sulfoxide (DMSO) and hydrochloric acid were obtained from Kanto Chemical (TOKYO, JP). Trizma Base (Tris), Bovine Serum Albumin (BSA) and Sodium tungstate dihydrate were obtained from Sigma Chemicals (St. Louis, Mo.). Dithiothreitol (DTT) and Dextran 70 were obtained from GE Healthcare (Buckinghamshire, UK). Glycerol was obtained from Junsei Chemical (TOKYO, JP). Norit® “SX-II” was obtained from Wako Pure Chemical Industries, Ltd. (Osaka, JP). MeltiLex™, A, Printed Filtermat A and Sample Bag were obtained from PerkinElmer (Boston, Mass.).
As a buffer for GR binding assay, 25 mM Tris-HCl (4° C., pH 7.4)/1 mM EDTA·2Na/1 mM DTT/0.1% BSA was prepared and used. As buffers for PRB and MR binding assay, 10 mM Tris-HCl (4° C., pH 7.4)/1 mM DTT/0.1% BSA/10% glycerol and 20 mM Tris-HCl (4° C., pH 7.4)/1 mM EDTA·2Na/10% glycerol/20 mM sodium tungstate were respectively prepared and used.
Compound storage solutions (5-20 mM) were prepared using DMSO. The storage solutions were diluted with DMSO to 0.1 mM (for GR) and 0.3 mM (for PRB and MR), and further diluted 20-fold with distilled water to give solutions. Then, the preparations were diluted to each concentration with 5% DMSO solution. 1% DMSO was present at the time of the binding assay.
GR, PRB and MR binding reactions were performed in 96 well plate (ABgene). In the case of GR binding assay, [^3H]-Dex (about 5 nM), GR cytosol (concentration of function receptor: about 4 pmol/mL), a test compound and a binding buffer were mixed in a total volume of 50 μL, and the mixture was stood at 4° C. for 30 min or longer. A specific binding was defined to be the difference in the [^3H]-Dex binding between the presence and the absence of 1 μM unlabeled Dex.
After the reaction, 50 μL of DCC was added to each well and blended. Thereafter, the mixture was stood at 4° C. for 10 min. The plate was applied to high-speed cooling centrifuge under the conditions of 4° C., 2000 rpm, 5 min to perform B/F separation. A given amount of the supernatant was recovered, which was spotted on Filtermat A of 96 well format (PerkinElmer) and rapidly dried at a high temperature.
Measurement of Inhibition Constant (Ki)
Ki of the test compound was determined by the following Cheng-Prusoff equation: Ki=IC50/(1+[L*]/Kd) • wherein L* is a concentration of radioactive ligand and Kd is a dissociation constant for radioactive ligand determined by saturation analysis.

Compound | Ki
CC1(C)Nc2c(cc(-c3cccc4ncccc34)c3occc23)C(C)(C)C1=O [Example 101, 2,2,4,4-tetramethyl-6-(quinolin-5-yl)-1,2,3,4-tetrahydro-furo [2,3-h]quinolin-3-one] | 35 nM
CC1(C)Nc2c(cc(-c3ccnc4ncccc34)c3occc23)C(C)(C)C1=O [Example 102, 2,2,4,4-tetramethyl-6-([1,8]naphthyridin-4-yl)-1,2,3,4-tetrahydro-furo[2,3-h]quinolin-3-one] | 66 nM
Cc1noc(C)c1-c1cc2c(c3c1C(=O)CC3)NC(C)(C)C(=O)C2(C)C [Example 104, 6-(3,5-dimethylisoxazol-4-yl)-2,2,4,4-tetramethyl-2,3,4,7,8,9-hexahydro-1H-cyclopenta[h]quinoline-3,7-dione] | 60 nM
